Experimental data from patent publication US9302999B2, “Substituted triazoles as herbicides” (E. I. DU PONT DE NEMOURS AND COMPANY, priority 2012, dated 2016).

Assays:
Assay type in all cases: in vivo
[1] = tested on: bromegrass, downy (downy bromegrass, Bromus tectorum); test: Test D pre-/postemergence: bromegrass, downy
How it was run: (§1)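 Scores run from 0 (no effect) to 100 (complete control), assigned by visual comparison with controls after 14 to 21 days in a controlled environment. Both preemergence application to silt loam and postemergence application to 1- to 4-leaf plants were tested.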

[2] = tested on: deadnettle (henbit deadnettle, Lamium amplexicaule); test: Test D pre-/postemergence: deadnettle
How it was run: as §1

[3] = tested on: foxtail, green (green foxtail, Setaria viridis); test: Test C pre-/postemergence: foxtail, green
How it was run: (§2)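 Visual injury scored 0–100 (100 = complete control) against untreated controls after 13–15 greenhouse days. Surfactant-containing solvent formulations applied either to soil after sowing (loam/sand) or over 1- to 4-leaf plants, 2–18 cm tall.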

[4] = tested on: chickweed (common chickweed, Stellaria media); test: Test D pre-/postemergence: chickweed
How it was run: as §1

[5] = tested on: goosegrass (Eleusine indica); test: Test C pre-/postemergence: goosegrass
How it was run: as §2

[6] = tested on: surinam grass (Brachiaria decumbens); test: Test C pre-/postemergence: surinam grass
How it was run: as §2

[7] = tested on: canarygrass (Phalaris minor); test: Test C postemergence: canarygrass
How it was run: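 Plants at the 1- to 4-leaf stage (2 to 18 cm tall), grown in pots of peat moss/vermiculite planting medium, received postemergence applications of the formulated test chemicals. After 13 to 15 days in a greenhouse, injury was scored visually versus controls from 0 (no effect) to 100 (complete control).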

[8] = tested on: lambsquarters (Chenopodium album); test: Test D pre-/postemergence: lambsquarters
How it was run: as §1

[9] = tested on: barley, winter (winter barley, Hordeum vulgare); test: Test D pre-/postemergence: barley, winter
How it was run: as §1

[10] = tested on: blackgrass (Alopecurus myosuroides); test: Test D pre-/postemergence: blackgrass
How it was run: as §1

[11] = Postemergence, 31 g ai/ha, scale 0 to 100 (0 no effect, 100 complete control)
[12] = Postemergence, 62 g ai/ha, scale 0 to 100 (0 no effect, 100 complete control)
[13] = Postemergence, 125 g ai/ha, scale 0 to 100, 0 no effect, 100 complete control
[14] = Postemergence, 250 g ai/ha, scale 0 to 100 (0 no effect, 100 complete control)
[15] = Postemergence, 16 g ai/ha, scale 0 to 100
[16] = Preemergence, 16 g ai/ha, scale 0 to 100 (0 no effect, 100 complete control)
[17] = Preemergence, 31 g ai/ha, scale 0 to 100 (0 no effect, 100 complete control)
[18] = Preemergence, 62 g ai/ha, scale 0 to 100
[19] = Preemergence, 125 g ai/ha, scale 0 to 100
[20] = Preemergence, 250 g ai/ha, scale 0 to 100
[21] = Preemergence, 31 g ai/ha, scale 0 (no effect) to 100 (complete control)
[22] = Preemergence, 62 g ai/ha, scale of 0 to 100, 0 is no effect, 100 is complete control
[23] = Preemergence, 125 g ai/ha, scale 0 to 100, 0 no effect, 100 complete control
[24] = Preemergence, 250 g ai/ha, scale 0 to 100, 0 no effect, 100 complete control
[25] = 31 g ai/ha, scale 0 to 100 (0 no effect, 100 complete control)
[26] = 62 g ai/ha, scale 0 to 100 (0 no effect, 100 complete control)
[27] = 125 g ai/ha, scale 0 to 100, 0 no effect, 100 complete control
[28] = Postemergence, 250 g ai/ha, scale 0 to 100
[29] = Preemergence, 31 g ai/ha, scale of 0 to 100, 0 is no effect, 100 is complete control

SMILES: CCOc1nn(-c2ccc(F)cc2)nc1Cc1ccnc(C(F)F)c1 [Compound 195]
- Plant response rating: Bromegrass, Downy [1, 11]: 15
- Plant response rating: Bromegrass, Downy [1, 12]: 20
- Plant response rating: Bromegrass, Downy [1, 13]: 35
- Plant response rating: Bromegrass, Downy [1, 14]: 40
- Plant response rating, Bromegrass, Downy [1, 15]: 5
- Plant response rating, Bromegrass, Downy [1, 16]: 0
- Plant response rating, Bromegrass, Downy [1, 17]: 0
- Plant response rating, Bromegrass, Downy [1, 18]: 25
- Plant response rating, Bromegrass, Downy [1, 19]: 35
- Plant response rating, Bromegrass, Downy [1, 20]: 50
- Plant response rating: Deadnettle [2, 11]: 65
- Plant response rating: Deadnettle [2, 12]: 75
- Plant response rating: Deadnettle [2, 13]: 75
- Plant response rating: Deadnettle [2, 14]: 90
- Plant response rating, Deadnettle [2, 15]: 60
- Plant response rating, Deadnettle [2, 16]: 60
- Plant response rating, Deadnettle [2, 17]: 60
- Plant response rating, Deadnettle [2, 18]: 60
- Plant response rating, Deadnettle [2, 19]: 100
- Plant response rating, Deadnettle [2, 20]: 100
- Plant response rating, Foxtail, Green [3, 11]: 100
- Plant response rating, Foxtail, Green [3, 12]: 100
- Plant response rating, Foxtail, Green [3, 13]: 100
- Plant response rating, Foxtail, Green [3, 14]: 100
- Plant response rating, Foxtail, Green [3, 21]: 90
- Plant response rating, Foxtail, Green [3, 22]: 90
- Plant response rating, Foxtail, Green [3, 23]: 90
- Plant response rating, Foxtail, Green [3, 24]: 90
- Plant response rating: Chickweed [4, 11]: 40
- Plant response rating: Chickweed [4, 12]: 60
- Plant response rating: Chickweed [4, 13]: 85
- Plant response rating: Chickweed [4, 14]: 90
- Plant response rating, Chickweed [4, 15]: 30
- Plant response rating, Goosegrass [5, 11]: 50
- Plant response rating, Goosegrass [5, 12]: 50
- Plant response rating, Goosegrass [5, 13]: 60
- Plant response rating, Goosegrass [5, 14]: 80
- Plant response rating, Goosegrass [5, 21]: 98
- Plant response rating, Goosegrass [5, 22]: 100
- Plant response rating, Goosegrass [5, 23]: 100
- Plant response rating, Goosegrass [5, 24]: 100
- Plant response rating, Surinam Grass [6, 11]: 30
- Plant response rating, Surinam Grass [6, 12]: 50
- Plant response rating, Surinam Grass [6, 14]: 60
- Plant response rating, Surinam Grass [6, 21]: 55
- Plant response rating, Surinam Grass [6, 22]: 75
- Plant response rating, Surinam Grass [6, 23]: 85
- Plant response rating, Surinam Grass [6, 24]: 98
- Plant response rating, Canarygrass [7, 25]: 40
- Plant response rating, Canarygrass [7, 26]: 60
- Plant response rating, Canarygrass [7, 27]: 85
- Plant response rating, Canarygrass ([7]; 250 g ai/ha, scale 0 to 100): 100
- Plant response rating: Lambsquarters [8, 11]: 75
- Plant response rating: Lambsquarters [8, 12]: 80
- Plant response rating: Lambsquarters [8, 13]: 95
- Plant response rating: Lambsquarters [8, 14]: 100
- Plant response rating, Lambsquarters [8, 15]: 60
- Plant response rating, Lambsquarters [8, 16]: 0
- Plant response rating, Lambsquarters [8, 17]: 0
- Plant response rating, Lambsquarters [8, 18]: 0
- Plant response rating, Lambsquarters [8, 19]: 30
- Plant response rating, Lambsquarters [8, 20]: 75
- Plant response rating: Barley, Winter [9, 11]: 10
- Plant response rating: Barley, Winter [9, 12]: 15
- Plant response rating: Barley, Winter [9, 13]: 30
- Plant response rating: Barley, Winter [9, 14]: 45
- Plant response rating, Barley, Winter [9, 15]: 0
- Plant response rating, Barley, Winter [9, 16]: 0
- Plant response rating, Barley, Winter [9, 17]: 0
- Plant response rating, Barley, Winter [9, 18]: 0
- Plant response rating, Barley, Winter [9, 19]: 0
- Plant response rating, Barley, Winter [9, 20]: 20
- Plant response rating: Blackgrass [10, 11]: 25
- Plant response rating: Blackgrass [10, 12]: 35
- Plant response rating: Blackgrass [10, 13]: 50
- Plant response rating: Blackgrass [10, 14]: 70
- Plant response rating, Blackgrass [10, 15]: 20
- Plant response rating, Blackgrass [10, 16]: 0
- Plant response rating, Blackgrass [10, 17]: 70
- Plant response rating, Blackgrass [10, 18]: 75
- Plant response rating, Blackgrass [10, 19]: 80
- Plant response rating, Blackgrass [10, 20]: 100

SMILES: Cc1nn(-c2ccc(F)cc2)nc1Oc1ccnc(C(F)(F)F)c1 [Compound 129, 4-[[2-(4-fluorophenyl)-5-methyl-2H-1,2,3-triazol-4-yl]oxy]-2-(trifluoromethyl)pyridine]
- Plant response rating: Bromegrass, Downy [1, 11]: 10
- Plant response rating: Bromegrass, Downy [1, 12]: 20
- Plant response rating: Bromegrass, Downy [1, 13]: 30
- Plant response rating: Bromegrass, Downy [1, 14]: 30
- Plant response rating, Bromegrass, Downy [1, 15]: 10
- Plant response rating, Bromegrass, Downy [1, 16]: 0
- Plant response rating, Bromegrass, Downy [1, 17]: 10
- Plant response rating, Bromegrass, Downy [1, 18]: 10
- Plant response rating, Bromegrass, Downy [1, 19]: 20
- Plant response rating, Bromegrass, Downy [1, 20]: 30
- Plant response rating: Deadnettle [2, 11]: 75
- Plant response rating: Deadnettle [2, 12]: 80
- Plant response rating: Deadnettle [2, 13]: 98
- Plant response rating: Deadnettle [2, 14]: 100
- Plant response rating, Deadnettle [2, 15]: 60
- Plant response rating, Deadnettle [2, 16]: 0
- Plant response rating, Deadnettle [2, 17]: 10
- Plant response rating, Deadnettle [2, 18]: 100
- Plant response rating, Deadnettle [2, 19]: 100
- Plant response rating, Deadnettle [2, 20]: 100
- Plant response rating, Foxtail, Green [3, 11]: 85
- Plant response rating, Foxtail, Green [3, 12]: 95
- Plant response rating, Foxtail, Green [3, 13]: 95
- Plant response rating, Foxtail, Green [3, 28]: 95
- Plant response rating, Foxtail, Green [3, 29]: 90
- Plant response rating, Foxtail, Green [3, 22]: 90
- Plant response rating, Foxtail, Green [3, 23]: 90
- Plant response rating, Foxtail, Green [3, 24]: 90
- Plant response rating: Chickweed [4, 11]: 90
- Plant response rating: Chickweed [4, 12]: 100
- Plant response rating: Chickweed [4, 13]: 100
- Plant response rating: Chickweed [4, 14]: 100
- Plant response rating, Chickweed [4, 15]: 75
- Plant response rating, Chickweed [4, 16]: 0
- Plant response rating, Chickweed [4, 17]: 100
- Plant response rating, Chickweed [4, 18]: 100
- Plant response rating, Chickweed [4, 19]: 100
- Plant response rating, Chickweed [4, 20]: 100
- Plant response rating, Goosegrass [5, 11]: 15
- Plant response rating, Goosegrass [5, 12]: 25
- Plant response rating, Goosegrass [5, 13]: 30
- Plant response rating, Goosegrass [5, 28]: 55
- Plant response rating, Goosegrass [5, 29]: 98
- Plant response rating, Goosegrass [5, 22]: 98
- Plant response rating, Goosegrass [5, 23]: 98
- Plant response rating, Goosegrass [5, 24]: 98
- Plant response rating, Surinam Grass [6, 11]: 45
- Plant response rating, Surinam Grass [6, 12]: 45
- Plant response rating, Surinam Grass [6, 13]: 50
- Plant response rating, Surinam Grass [6, 28]: 60
- Plant response rating, Surinam Grass [6, 29]: 95
- Plant response rating, Surinam Grass [6, 22]: 95
- Plant response rating, Surinam Grass [6, 23]: 98
- Plant response rating, Surinam Grass [6, 24]: 98
- Plant response rating, Canarygrass [7, 25]: 30
- Plant response rating, Canarygrass [7, 26]: 45
- Plant response rating, Canarygrass [7, 27]: 50
- Plant response rating, Canarygrass ([7]; 250 g ai/ha, scale 0 to 100): 85
- Plant response rating: Lambsquarters [8, 11]: 85
- Plant response rating: Lambsquarters [8, 12]: 95
- Plant response rating: Lambsquarters [8, 13]: 100
- Plant response rating: Lambsquarters [8, 14]: 100
- Plant response rating, Lambsquarters [8, 15]: 85
- Plant response rating, Lambsquarters [8, 16]: 0
- Plant response rating, Lambsquarters [8, 17]: 80
- Plant response rating, Lambsquarters [8, 18]: 90
- Plant response rating, Lambsquarters [8, 19]: 90
- Plant response rating, Lambsquarters [8, 20]: 100
- Plant response rating: Barley, Winter [9, 11]: 5
- Plant response rating: Barley, Winter [9, 12]: 10
- Plant response rating: Barley, Winter [9, 13]: 15
- Plant response rating: Barley, Winter [9, 14]: 30
- Plant response rating, Barley, Winter [9, 15]: 5
- Plant response rating, Barley, Winter [9, 16]: 0
- Plant response rating, Barley, Winter [9, 17]: 0
- Plant response rating, Barley, Winter [9, 18]: 0
- Plant response rating, Barley, Winter [9, 19]: 10
- Plant response rating, Barley, Winter [9, 20]: 15
- Plant response rating: Blackgrass [10, 11]: 10
- Plant response rating: Blackgrass [10, 12]: 10
- Plant response rating: Blackgrass [10, 13]: 50
- Plant response rating: Blackgrass [10, 14]: 70
- Plant response rating, Blackgrass [10, 15]: 5
- Plant response rating, Blackgrass [10, 16]: 0
- Plant response rating, Blackgrass [10, 17]: 0
- Plant response rating, Blackgrass [10, 18]: 30
- Plant response rating, Blackgrass [10, 19]: 100
- Plant response rating, Blackgrass [10, 20]: 100
